Patent US9211252B2, “Increased drug loading capacity of polymeric material” (Medtronic, Inc., priority 2007, dated 2015)
Entries after “also recorded” stand apart in the source; their conditions may differ. Where two headings read alike, the source gives them in different places. One block for each molecule: values may come before it.

How the values were obtained:
[1] = Solvent swelling of silicone boots; format: physicochemical; details: silicone boots placed in solvent for 2 hours; solvent ratios by volume
Description: The effect of various solvents to swell (as determined by % weight increase) silicone boots was determined. Silicone boots were weighed, placed in a solvent for 2 hours, and weighed again.
The solvent ratios in Table 1 are by volume. The ability to swell silicone by 30% or more is believed to be suitable for increasing the loading capacity of silicone. The ability to swell silicone by 50% or more is believed to be more suitable for increasing the loading capacity of silicone.

[2] = for increase in drug loading, pre-extracted relative to non-extracted silicone discs: 2 hour plus 24 hour extracted; for average drug loaded into silicone discs: 24 hr loading, HPLC of 25 mL extract
Description: One sheet was removed after 2 hours; the other was removed after 24. The sheets were allowed to dry for 24 hours.
Nine 1¼ inch discs were punched from each sheet of silicone. The discs (27) were separated into 9 jars (3 per jar). Each jar contained a drug loading solution. Three jars contained clonidine, three contained dexamethasone and three contained sulindac.
After stirring 24 hrs in solution, all the samples were removed, rinsed twice for approximately 10 seconds in a sufficient volume of methanol and allowed to dry overnight in open air on a drying rack. The samples were then stored until extraction in jars in a nitrogen purged foil bag.
Each sample was cut in half, and the half sample was weighed. Initially only the clonidine and sulindac samples were analyzed.
All samples were extracted in THF/ethanol 4:1 (15 mL) for 30 min; then re-extracted in THF/ethanol 4:1 (10 mL) for 20 min. The first and second extracts were combined in a volumetric flask and any additional volume was added to make exactly 25 mL of solution. These samples were stored in at 4° C. until analysis.
HPLC Analysis was performed using an Agilent 1100 stack. For dexamethasone, isocratic separation using acetonytrile:water (45:55) was performed. A Zorbax SB-Phenyl, 5 μm, 4.6×150 mm, column (Agilent Technologies, Inc.) was used at a column temperature of 30° C. The flow rate was 10 mL/min, with a run time of 15 minutes. Dexamethasone was detected by UV at 245 nm.
For sulindac, isocratic separation using 0.1% phosphoric acid in acetonitrile:water (38:62) was performed. A PRONTOSIL 120-5-C18-ace-EPS, 5 μm, 4.6×150 mm, column was used at a column temperature of 37° C. The autosampler temperature was 15° C. The flow rate was 1.0 mL/min, with a run time of 35 min. Sulindac was detected by UV at 285 nm. Injection volumes were 10-50 μL.
The autosample temperature was ambient temperature. Isocratic separation using a mobile phase A (MPA):mobile phase B (MPB) ratio of 52:48 was employed. MPA consisted of 2.2 gm 1-octanesulfonic acid, sodium salt for each liter of nanopure water. MPB was HPLC Grade Methanol. The flow rate was 1 mL/min, with a run time of 15 minutes. […] The injection volume was 10 μL

[3] = Solubility of drug in the loading solution; format: physicochemical; details: methanol/butyl acetate loading solution, extra 5 mL methanol added
[4] = Loading of minocycline and rifampin into pre-extracted and non-extracted silicone boots; format: physicochemical; details: for drug concentration in polymer: loading 1 hour in butyl acetate:methanol 85:15
Description: Molded, cured silicone (Dow-Q7 4850) boots designed to fit snuggly around Restore® implantable neurostimulators (Medtroinc, Inc.) were placed in a concentrated drug loading solution containing rifampin (30 mg/ml) and minocycline (15 mg/ml) in butyl acetate:methanol (85:15, by volume). The polymer was allowed to swell in this solution for one hour, rinsed and then dried overnight.
The efficiency of various solvents to extract material from cured silicone was tracked by determining the weight loss post-extraction. […] It was initially assumed that subjecting the polymer to drug loading should fulfill the same function as pre-extracting the material prior to drug loading.
One thought was that the existence of extractables in the loading solution might increase the solubility of the drugs in solution compared to solubility in the silicone, thus lowering the partitioning of drug into the silicone. Eight non-extracted silicone boots and 10 pre-extracted boots were drug loaded in separate loading solutions. Two additional pre-extracted silicone boots were then loaded in the formulation used to load the non-extracted boots. According to the hypothesis, the loading solution used for the non-extracted boots would theoretically contain higher levels of silicone extractables, and result in lower loading of the pre-extracted boots.

[5] = not pre-extracted with butyl acetate
[6] = pre-extracted with butyl acetate for 2 hours
[7] = pre-extracted with butyl acetate for 24 hours

Compound: CC(C)=O [Acetone]
% Weight Increase [1]: 15%

Compound: CCCCOC(C)=O [Butyl Acetate]
% Weight Increase [1]: 73%

Compound: ClC(Cl)Cl [Chloroform]
% Weight Increase [1]: 166%

Compound: C1CCCCC1 [Cyclohexane]
% Weight Increase [1]: 85%

Compound: C1CCCC1 [Cyclopentane]
% Weight Increase [1]: 62%

Compound: Cc1ccccc1 [Toluene]
% Weight Increase [1]: 85%

Compound: C[C@@H]1C[C@H]2[C@@H]3CCC4=CC(=O)C=C[C@]4(C)[C@@]3(F)[C@@H](O)C[C@]2(C)[C@@]1(O)C(=O)CO [dexamethasone]
solubility in loading solution [3]: substantial insolubility; also recorded: did not seem to dissolve well

Other lines, results leading:

% Weight Increase [1]: 54%
Compound: CCOC(C)=O [Ethyl acetate]

% Weight Increase [1]: 13%
Compound: CC(C)O [Isopropyl alcohol]

% Weight Increase [1]: 105%
Compound: C1CCOC1 [THF]

increase in drug loading, pre-extracted relative to non-extracted silicone discs [2]: ~6%
average drug loaded into silicone discs [2, 5]: 19.41 ± 0.20 µg/mL
average drug loaded into silicone discs [2, 6]: 20.59 ± 0.20 µg/mL
average drug loaded into silicone discs [2, 7]: 20.49 ± 0.22 µg/mL
Compound: Clc1cccc(Cl)c1N=C1NCCN1 [clonidine]

drug concentration in polymer ([4]; non-extracted silicone boots): 2.61 mg/g
drug concentration in polymer ([4]; silicone boots pre-extracted with butyl acetate): 3.28 mg/g
increase in drug concentration, pre-extracted vs non-extracted ([4]; silicone boots, same lot): 25.7%
Compound: CO[C@H]1/C=C/O[C@@]2(C)Oc3c(C)c(O)c4c(O)c(c(/C=N/N5CCN(C)CC5)c(O)c4c3C2=O)NC(=O)/C(C)=C\C=C\[C@H](C)[C@H](O)[C@@H](C)[C@@H](O)[C@@H](C)[C@H](OC(C)=O)[C@@H]1C [rifampin]

increase in drug loading, pre-extracted relative to non-extracted silicone discs [2]: ~19%
average drug loaded into silicone discs [2, 5]: 1.56 ± 0.03 µg/mL
average drug loaded into silicone discs [2, 6]: 1.86 ± 0.06 µg/mL
average drug loaded into silicone discs [2, 7]: 1.88 ± 0.11 µg/mL
Compound: CC1=C(CC(=O)O)c2cc(F)ccc2/C1=C\c1ccc([S+](C)[O-])cc1 (stereo not drawn) [sulindac]
